This note sets out measurements from ChEMBL document CHEMBL1130475 (Bioorg Med Chem Lett, 1997).

Broadly, the Ki is the dissociation constant of the complex between target and ligand, obtained from inhibition or displacement.

Sequence of FK506 binding protein 12 (Q8QGU2 whole entry): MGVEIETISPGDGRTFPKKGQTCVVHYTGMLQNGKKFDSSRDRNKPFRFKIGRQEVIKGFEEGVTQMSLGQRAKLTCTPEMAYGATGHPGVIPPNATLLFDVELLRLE

Tested on in the first experiment: not listed separately
Briefly: Ability to promote neurite outgrowth against freshly isolated sensory neuronal cultures. Format: functional. As to conditions: Gallus gallus; read-out: ED50 (the source's name).
Consider `CCOC(=O)C1CCCCN1C(=O)C(=O)C(C)(C)CC` (configuration not stated), for which the EC50 came out at 5000 nM.
Same read-out and setting: next, `CCC(C)(C)C(=O)C(=O)N1CCCCC1C(=O)OCCCc1cc(OC)c(OC)c(OC)c1` (configuration not stated): 80 nM; `CCC(C)(C)C(=O)C(=O)N1CCCCC1C(=O)OCCC(c1ccccc1)c1ccccc1` (configuration not stated): 0.029 nM; `CCC(C)(C)C(=O)C(=O)N1CCCCC1C(=O)OCCCCc1ccc(OC)cc1` (configuration not stated): 43 nM.
Still for that read-out and setting: next, `CC(C)(C)C(=O)C(=O)N1CCCCC1C(=O)OC(CCCc1ccccc1)CCCc1ccccc1` (configuration not stated): 0.085 nM; `CCC(C)(C)C(=O)C(=O)N1CCCCC1C(=O)OCCCc1ccccc1` (configuration not stated): 300 nM; `CC(C)(C)C(=O)C(=O)N1CCCCC1C(=O)OCCCc1ccccc1` (configuration not stated): 0.085 nM.
The same measure, in the same setting: next, `COc1ccc(CCCCOC(=O)C2CCCCN2C(=O)C(=O)C(C)(C)C)cc1` (configuration not stated): 0.002 nM; `O=C(C(=O)N1CCCCC1C(=O)OC(CCCc1ccccc1)CCCc1ccccc1)c1ccccc1` (configuration not stated): 0.15 nM.
As to `CCC(C)(C)C(=O)C(=O)N1CCCCC1C(=O)OC(CCc1ccccc1)CCc1ccccc1` (configuration not stated), the EC50 turned out to be 0.016 nM.
Still for that read-out and setting: next, `CCC(C)(C)C(=O)C(=O)N1CCCCC1C(=O)OC(CCCc1ccccc1)CCCc1ccccc1` (configuration not stated): 5 nM.
The same measure, in the same setting: next, `COc1cc(C(=O)C(=O)N2CCCCC2C(=O)OC(CCCc2ccccc2)CCCc2ccccc2)cc(OC)c1OC` (configuration not stated): 0.61 nM.
Regarding `CCC(C)(C)C(=O)C(=O)N1CCCCC1C(=O)OC(CCCc1ccccc1)CCc1ccc(OC)cc1` (configuration not stated), the EC50 came out at 0.17 nM.
In the case of `CCOC(=O)C1CCCCN1C(=O)C(=O)OC` (configuration not stated), the EC50 was > 10000 nM.

Another experiment concerns the target FK506 binding protein 12 (Gallus gallus, UniProt Q8QGU2). Briefly: Inhibition of binding to FKBP12 receptor.
Details: not given
Take `CCOC(=O)C1CCCCN1C(=O)C(=O)C(C)(C)CC` (configuration not stated): the Ki turned out to be 1300 nM.
`CCC(C)(C)C(=O)C(=O)N1CCCCC1C(=O)OCCCc1cc(OC)c(OC)c(OC)c1` (configuration not stated) registered a Ki of 25 nM. Compared with the last compound, the Ki is about 52-fold lower.
On the same count and under the same terms, the value for `CCC(C)(C)C(=O)C(=O)N1CCCCC1C(=O)OCCC(c1ccccc1)c1ccccc1` (configuration not stated) was 8.3 nM; that for `CCC(C)(C)C(=O)C(=O)N1CCCCC1C(=O)OCCCCc1ccc(OC)cc1` (configuration not stated) was 60 nM.
Same read-out and setting: next, `CCC(C)(C)C(=O)C(=O)N1CCCCC1C(=O)OCCCc1ccccc1` (configuration not stated): 250 nM.
Same read-out and setting: the value for `COc1ccc(CCCCOC(=O)C2CCCCN2C(=O)C(=O)C(C)(C)C)cc1` (configuration not stated) was 24 nM; that for `O=C(C(=O)N1CCCCC1C(=O)OC(CCCc1ccccc1)CCCc1ccccc1)c1ccccc1` (configuration not stated) was 3 nM.
As for `CCC(C)(C)C(=O)C(=O)N1CCCCC1C(=O)OC(CCCc1ccccc1)CCc1ccc(OC)cc1` (configuration not stated), the affinity corresponds to a Ki of 15 nM.
For the compound `CCOC(=O)C1CCCCN1C(=O)C(=O)OC` (configuration not stated), the Ki is > 10000 nM.

Tested on in a further experiment: not listed separately
Kind of experiment: Tested for its ability to inhibit calcineurin phosphatase activity in standard in vitro assay; NI means no inhibition at >10 uM.
Details: not given
Format: functional.
Consider `CCC(C)(C)C(=O)C(=O)N1CCCCC1C(=O)OCCCc1cc(OC)c(OC)c(OC)c1` (configuration not stated), for which the Activity entry is “No inhibition”.
The same measure, in the same setting: the value for `CCC(C)(C)C(=O)C(=O)N1CCCCC1C(=O)OCCCc1ccccc1` (configuration not stated) was “No inhibition”.

The subject of another experiment is T-cell. Kind of experiment: Tested for its ability to block T-cell proliferation in standard in vitro assay; NI means no inhibition at >10 uM. Type of experiment: functional, cell-based.
Details: not given
Regarding `CCC(C)(C)C(=O)C(=O)N1CCCCC1C(=O)OCCCc1cc(OC)c(OC)c(OC)c1` (configuration not stated), the Activity result is “No inhibition”.
On the same count and under the same terms, the value for `CCC(C)(C)C(=O)C(=O)N1CCCCC1C(=O)OCCCc1ccccc1` (configuration not stated) was “No inhibition”.
